The results in this text go back to paper PMC9963876, “Multiple Effects of Echinochrome A on Selected Ion Channels Implicated in Skin Physiology” (Marine Drugs, 2023).

The target in assay [1] is T1, Orai1 (Homo sapiens, UniProt Q96D31).
T1 construct: with STIM1
Put plainly: whole-cell patch clamp, Orai1/STIM1 co-expressing HEK […]. Type of assay: cell-based. For orientation: Patch clamp records ionic current or voltage across a cell membrane.

Assay [2] deals with T2, TRPV3 (Homo sapiens, UniProt Q8NET8).
T2 sequence (Q8NET8 1-790): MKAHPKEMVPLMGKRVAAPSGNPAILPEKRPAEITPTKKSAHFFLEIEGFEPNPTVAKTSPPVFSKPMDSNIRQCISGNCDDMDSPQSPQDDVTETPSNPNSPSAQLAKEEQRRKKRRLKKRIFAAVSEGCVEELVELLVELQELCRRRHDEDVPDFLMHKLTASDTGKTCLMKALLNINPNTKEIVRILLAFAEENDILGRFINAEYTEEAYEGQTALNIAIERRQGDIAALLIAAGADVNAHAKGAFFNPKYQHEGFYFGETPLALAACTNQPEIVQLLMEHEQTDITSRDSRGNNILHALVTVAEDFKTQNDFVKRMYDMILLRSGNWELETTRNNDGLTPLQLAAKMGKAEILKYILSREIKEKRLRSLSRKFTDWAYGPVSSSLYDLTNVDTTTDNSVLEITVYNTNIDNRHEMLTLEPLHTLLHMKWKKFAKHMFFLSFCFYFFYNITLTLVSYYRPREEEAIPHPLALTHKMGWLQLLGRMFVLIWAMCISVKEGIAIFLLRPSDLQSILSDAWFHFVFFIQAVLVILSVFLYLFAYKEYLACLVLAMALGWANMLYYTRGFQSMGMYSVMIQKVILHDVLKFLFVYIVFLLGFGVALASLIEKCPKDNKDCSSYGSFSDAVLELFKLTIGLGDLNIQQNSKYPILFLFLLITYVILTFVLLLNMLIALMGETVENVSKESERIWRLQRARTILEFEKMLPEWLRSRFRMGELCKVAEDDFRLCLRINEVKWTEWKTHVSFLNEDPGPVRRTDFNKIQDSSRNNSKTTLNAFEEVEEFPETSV
Put plainly: whole-cell patch clamp, TRPV3-overexpressing HEK […], 2-APB-activated current. Format: cell-based.

T1 sequence (Q96D31 whole entry): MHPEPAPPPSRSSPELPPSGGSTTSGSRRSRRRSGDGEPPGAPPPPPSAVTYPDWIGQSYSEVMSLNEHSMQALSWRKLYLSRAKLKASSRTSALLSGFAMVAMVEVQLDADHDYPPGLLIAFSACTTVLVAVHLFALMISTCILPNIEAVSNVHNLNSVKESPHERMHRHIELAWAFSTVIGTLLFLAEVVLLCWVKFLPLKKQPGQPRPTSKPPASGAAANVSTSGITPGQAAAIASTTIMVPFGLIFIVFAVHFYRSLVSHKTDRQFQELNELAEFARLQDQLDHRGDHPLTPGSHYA
T1 sequence (Q13586 23-685 partner): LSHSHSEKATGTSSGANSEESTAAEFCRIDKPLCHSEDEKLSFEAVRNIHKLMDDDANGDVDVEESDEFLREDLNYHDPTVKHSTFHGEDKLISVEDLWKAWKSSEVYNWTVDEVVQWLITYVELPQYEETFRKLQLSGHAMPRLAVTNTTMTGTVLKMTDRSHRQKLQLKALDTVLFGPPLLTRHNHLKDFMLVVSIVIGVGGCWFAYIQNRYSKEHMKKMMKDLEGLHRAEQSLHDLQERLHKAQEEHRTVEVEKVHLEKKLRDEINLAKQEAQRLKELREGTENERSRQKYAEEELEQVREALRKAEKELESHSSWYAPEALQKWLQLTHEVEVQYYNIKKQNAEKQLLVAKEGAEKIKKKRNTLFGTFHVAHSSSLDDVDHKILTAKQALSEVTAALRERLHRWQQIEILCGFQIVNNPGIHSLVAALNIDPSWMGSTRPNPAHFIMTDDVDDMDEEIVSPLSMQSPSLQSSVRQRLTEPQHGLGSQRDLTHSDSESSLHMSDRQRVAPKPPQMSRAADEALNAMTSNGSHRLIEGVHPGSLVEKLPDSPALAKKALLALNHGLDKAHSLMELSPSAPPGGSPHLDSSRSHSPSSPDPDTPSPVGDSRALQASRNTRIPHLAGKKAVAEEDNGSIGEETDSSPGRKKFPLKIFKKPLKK

A word on the IC50: it is the midpoint of a concentration-inhibition curve. Lower therefore signals greater potency. Turning to `CCc1c(O)c(O)c2c(c1O)C(=O)C(O)=C(O)C2=O` [Ech A, 6-ethyl-2,3,5,7,8-pentahydroxy-1,4-naphthoquinone], the IC50 in assay [1] amounted to 2410 ± 1550 nM; in assay [2] it was 2110 ± 1050 nM.
